Among the data in PubChem BioAssay AID651592 (Sanford-Burnham Center for Chemical Genomics, 2012) are IC50 values, retold here.

The target in assay [1] is Interleukin-8 (Homo sapiens) (UniProt P10145). As to the kind of experiment: inhibitors of NFkB activation in CF airway cells, SAR follow-up, KKLEB cells, panel, IL8 HTRF, NFkB-GFP (AID 651592).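 Note: immortalized cystic fibrosis airway epithelial KKLEB cells with an NF-kB GFP reporter.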 The following applies: PAF/TNFa-induced NFkB-GFP / IL8 HTRF. In general terms: TR-FRET usually uses a lanthanide donor and a delayed reading to cut background.
The next assay concerns IL8. Described as above. To be noted: PAF/TNFa-induced NFkB-GFP / IL8 HTRF, mean of runs, mean IC50 across panel replicates.
Assay in assay [2]: as above
The following applies: PAF/TNFa-induced NFkB-GFP / IL8 HTRF, CF-PAF assay.

Where [3] appears, read: mean of runs, mean IC50 across panel replicates.

Sequence of Interleukin-8 (Homo sapiens) (P10145 whole entry, looked up): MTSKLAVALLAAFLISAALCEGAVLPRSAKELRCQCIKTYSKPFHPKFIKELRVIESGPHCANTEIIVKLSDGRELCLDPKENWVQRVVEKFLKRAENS

In the case of `O=C(Nc1ccc(N2CCN(C(=O)c3ccccc3F)CC2)cc1)c1ccccc1`, the half-inhibitory concentration (IC50) in assay [1] (IL8, PAF-induced, run 1) was more than 66 µM; in assay [1] (IL8, PAF-induced, run 2), more than 66 µM; in assay [1] (IL8, PAF-induced, run 3), more than 66 µM; in assay [1] (IL8, PAF-induced, run 4) it was more than 66 µM; in assay [1] (IL8, PAF-induced, run 5) it was more than 66 µM; in assay [1] (IL8, PAF-induced, run 6), more than 66 µM. Also, the half-inhibitory concentration (IC50) in assay [1] (IL8, TNFa-induced, run 1) was more than 66 µM; in assay [1] (IL8, TNFa-induced, run 2), more than 66 µM; in assay [1] (IL8, TNFa-induced, run 3), 4.29 µM; in assay [1] (IL8, TNFa-induced, run 4), more than 66 µM; in assay [1] (IL8, TNFa-induced, run 5), more than 66 µM; in assay [1] (IL8, TNFa-induced, run 6), more than 66 µM. For the same compound, the IC50 was more than 66 µM in the assay on IL8 (PAF-induced); 55.7 µM with IL8 (TNFa-induced); 37.5 µM in assay [2] (setting [3]); 8.36 µM in assay [2] (run 1); 9.34 µM in assay [2] (run 2); 9.4 µM in assay [2] (run 3). For the same compound, the half-maximal inhibitory concentration (IC50) in assay [2] (run 4), in assay [2] (run 5) and in assay [2] (run 6) was more than 66 µM each time.
As to `O=C(Nc1ccc(N2CCN(C(=O)c3ccccc3F)CC2)cc1)c1ccncc1`, the IC50 in assay [1] (IL8, PAF-induced, run 1) was more than 66 µM; in assay [1] (IL8, PAF-induced, run 2), more than 66 µM; in assay [1] (IL8, PAF-induced, run 3), 55.8 µM; in assay [1] (IL8, PAF-induced, run 4) it was more than 66 µM; in assay [1] (IL8, PAF-induced, run 5) it was more than 66 µM; in assay [1] (IL8, PAF-induced, run 6), more than 66 µM. For the same compound, the IC50 is more than 66 µM in assay [1] (IL8, TNFa-induced, run 1); more than 66 µM in assay [1] (IL8, TNFa-induced, run 2); more than 66 µM in assay [1] (IL8, TNFa-induced, run 3); more than 66 µM in assay [1] (IL8, TNFa-induced, run 4); more than 66 µM in assay [1] (IL8, TNFa-induced, run 5); more than 66 µM in assay [1] (IL8, TNFa-induced, run 6). The IC50 in the assay on IL8 (PAF-induced) is 55.8 µM; in the assay on IL8 (TNFa-induced), more than 66 µM; in assay [2] (setting [3]), 31.8 µM; in assay [2] (run 1) it was 15.6 µM; in assay [2] (run 2) it was 16.3 µM; in assay [2] (run 3) it was 17.9 µM. Further, the IC50 in assay [2] (run 4) is more than 66 µM; in assay [2] (run 5), more than 66 µM; in assay [2] (run 6), 8.71 µM.
Take `O=C(Nc1ccc(N2CCN(C(=O)c3ccccc3)CC2)cc1)c1cccc(Br)c1`: the half-inhibitory concentration (IC50) is more than 66 µM in assay [1] (IL8, PAF-induced, run 1); 4.44 µM in assay [1] (IL8, PAF-induced, run 2); 17.8 µM in assay [1] (IL8, PAF-induced, run 3); more than 66 µM in assay [1] (IL8, PAF-induced, run 4); more than 66 µM in assay [1] (IL8, PAF-induced, run 5); more than 66 µM in assay [1] (IL8, PAF-induced, run 6). Further, the IC50 in assay [1] (IL8, TNFa-induced, run 1) was more than 66 µM; in assay [1] (IL8, TNFa-induced, run 2) it was more than 66 µM; in assay [1] (IL8, TNFa-induced, run 3) it was 14.9 µM; in assay [1] (IL8, TNFa-induced, run 4), more than 66 µM; in assay [1] (IL8, TNFa-induced, run 5), more than 66 µM; in assay [1] (IL8, TNFa-induced, run 6) it was 8.25 µM. Besides, the IC50 was determined as 47.7 µM with IL8 (PAF-induced); 47.9 µM with IL8 (TNFa-induced); 20.5 µM in assay [2] (setting [3]); 14.9 µM in assay [2] (run 1); 16.6 µM in assay [2] (run 2); 19.2 µM in assay [2] (run 3). In addition, the concentration for half-maximal inhibition (IC50) in assay [2] (run 4) was determined as 20.7 µM; in assay [2] (run 5), 23.1 µM; in assay [2] (run 6), 28.5 µM.
For `O=C(Nc1ccc(N2CCN(C(=O)c3ccc(F)cc3)CC2)cc1)c1ccccn1`, the half-inhibitory concentration (IC50) in assay [1] (IL8, PAF-induced, run 1) is more than 66 µM; in assay [1] (IL8, PAF-induced, run 2) it was more than 66 µM; in assay [1] (IL8, PAF-induced, run 3), more than 66 µM; in assay [1] (IL8, PAF-induced, run 4), more than 66 µM; in assay [1] (IL8, PAF-induced, run 5) it was more than 66 µM; in assay [1] (IL8, PAF-induced, run 6) it was more than 66 µM. For the same compound, the IC50 was more than 66 µM in assay [1] (IL8, TNFa-induced, run 1); more than 66 µM in assay [1] (IL8, TNFa-induced, run 2); more than 66 µM in assay [1] (IL8, TNFa-induced, run 3); more than 66 µM in assay [1] (IL8, TNFa-induced, run 4); more than 66 µM in assay [1] (IL8, TNFa-induced, run 5); more than 66 µM in assay [1] (IL8, TNFa-induced, run 6). The concentration for half-maximal inhibition (IC50) (with IL8 (PAF-induced); in the assay on IL8 (TNFa-induced); in assay [2] (setting [3]); in assay [2] (run 1); in assay [2] (run 2); in assay [2] (run 3)) was more than 66 µM throughout. Also, the IC50 in assay [2] (run 4), in assay [2] (run 5) and in assay [2] (run 6) was more than 66 µM each time.
In the case of `O=C(Nc1ccc(N2CCN(C(=O)c3ccccc3)CC2)cc1)c1cc(Br)cc(Br)c1`, the half-maximal inhibitory concentration (IC50) in assay [1] (IL8, PAF-induced, run 1) was more than 66 µM; in assay [1] (IL8, PAF-induced, run 2), more than 66 µM; in assay [1] (IL8, PAF-induced, run 3) it was more than 66 µM; in assay [1] (IL8, PAF-induced, run 4), more than 66 µM; in assay [1] (IL8, PAF-induced, run 5), more than 66 µM; in assay [1] (IL8, PAF-induced, run 6), more than 66 µM. Also, the IC50 in assay [1] (IL8, TNFa-induced, run 1) was more than 66 µM; in assay [1] (IL8, TNFa-induced, run 2), more than 66 µM; in assay [1] (IL8, TNFa-induced, run 3) it was more than 66 µM; in assay [1] (IL8, TNFa-induced, run 4) it was more than 66 µM; in assay [1] (IL8, TNFa-induced, run 5), more than 66 µM; in assay [1] (IL8, TNFa-induced, run 6) it was more than 66 µM. For the same compound, the IC50 (with IL8 (PAF-induced); in the assay with IL8 (TNFa-induced); in assay [2] (setting [3]); in assay [2] (run 1); in assay [2] (run 2); in assay [2] (run 3)) was more than 66 µM in each case. Besides, the half-inhibitory concentration (IC50) in assay [2] (run 4), in assay [2] (run 5) and in assay [2] (run 6) was more than 66 µM each time.

In general, IC50 refers to the concentration at which inhibition is half-maximal. A higher IC50 goes with weaker potency.
